Measured values from the kinase profiling compilation of Christmann-Franck et al. (2016).
Each block holds one compound with its values, some of them ahead of it.

Tests used:
Assay in all cases: Caliper, Mobility shift assay off-chip
PRKG1 (human) = PRKG1 (human) (UniProt Q13976)
VRK2 (human) = VRK2 (human) (UniProt Q86Y07)
EPHA8 (human) = EPHA8 (human) (UniProt P29322)
EPHA3 (human) = EPHA3 (human) (UniProt P29320)
SGK3 (human) = SGK3 (human) (UniProt Q96BR1)
GCK (human) = GCK (human) (UniProt Q12851)
EPHB3 (human) = EPHB3 (human) (UniProt P54753)
CDC42BPB (human) = CDC42BPB (human) (UniProt Q9Y5S2)
CSNK1G1 (human) = CSNK1G1 (human) (UniProt Q9HCP0)
STK10 (human) = STK10 (human) (UniProt O94804)
EPHA5 (human) = EPHA5 (human) (UniProt P54756)
Chain of EPHA5 (human) (P54756 whole entry, looked up): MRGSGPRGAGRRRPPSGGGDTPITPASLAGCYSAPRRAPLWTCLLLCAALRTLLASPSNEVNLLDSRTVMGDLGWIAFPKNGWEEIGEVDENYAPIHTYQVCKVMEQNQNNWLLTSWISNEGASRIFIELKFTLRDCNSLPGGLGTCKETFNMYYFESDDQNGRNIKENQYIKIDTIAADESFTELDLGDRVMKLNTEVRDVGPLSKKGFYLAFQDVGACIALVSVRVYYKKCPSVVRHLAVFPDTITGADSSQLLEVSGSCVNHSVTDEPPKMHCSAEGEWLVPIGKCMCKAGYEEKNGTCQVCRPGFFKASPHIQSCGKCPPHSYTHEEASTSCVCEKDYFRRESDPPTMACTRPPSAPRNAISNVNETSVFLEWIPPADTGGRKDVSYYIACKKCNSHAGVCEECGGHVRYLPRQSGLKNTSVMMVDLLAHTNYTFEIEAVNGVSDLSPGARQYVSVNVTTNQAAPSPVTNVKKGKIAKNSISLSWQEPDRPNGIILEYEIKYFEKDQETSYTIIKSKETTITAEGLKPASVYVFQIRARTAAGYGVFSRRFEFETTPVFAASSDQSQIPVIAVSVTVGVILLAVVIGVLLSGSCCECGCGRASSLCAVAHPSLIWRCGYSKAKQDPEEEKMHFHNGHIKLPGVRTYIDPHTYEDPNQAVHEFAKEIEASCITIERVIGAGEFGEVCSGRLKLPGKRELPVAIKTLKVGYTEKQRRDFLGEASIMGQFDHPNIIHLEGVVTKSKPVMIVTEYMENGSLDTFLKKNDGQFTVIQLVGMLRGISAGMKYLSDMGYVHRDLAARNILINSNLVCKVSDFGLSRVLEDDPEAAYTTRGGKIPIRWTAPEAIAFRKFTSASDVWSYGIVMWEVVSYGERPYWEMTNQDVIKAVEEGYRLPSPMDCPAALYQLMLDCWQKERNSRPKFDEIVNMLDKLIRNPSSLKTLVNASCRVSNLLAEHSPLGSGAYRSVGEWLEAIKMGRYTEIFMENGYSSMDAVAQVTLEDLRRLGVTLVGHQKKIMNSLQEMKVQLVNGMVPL

ACVR1B (human) = ACVR1B (human) (UniProt P36896)
CDK1 CCNB1 (human) = CDK1 CCNB1 (human) (UniProt P06493+P14635)
SIK1 (human) = SIK1 (human) (UniProt P57059)
MAP3K5 (human) = MAP3K5 (human) (UniProt Q99683)
CDC42BPA (human) = CDC42BPA (human) (UniProt Q5VT25)
CAMK1 (human) = CAMK1 (human) (UniProt Q14012)
MST1R (human) = MST1R (human) (UniProt Q04912)
STK3 (human) = STK3 (human) (UniProt Q13188)
Chain of STK3 (human) (Q13188 whole entry, looked up): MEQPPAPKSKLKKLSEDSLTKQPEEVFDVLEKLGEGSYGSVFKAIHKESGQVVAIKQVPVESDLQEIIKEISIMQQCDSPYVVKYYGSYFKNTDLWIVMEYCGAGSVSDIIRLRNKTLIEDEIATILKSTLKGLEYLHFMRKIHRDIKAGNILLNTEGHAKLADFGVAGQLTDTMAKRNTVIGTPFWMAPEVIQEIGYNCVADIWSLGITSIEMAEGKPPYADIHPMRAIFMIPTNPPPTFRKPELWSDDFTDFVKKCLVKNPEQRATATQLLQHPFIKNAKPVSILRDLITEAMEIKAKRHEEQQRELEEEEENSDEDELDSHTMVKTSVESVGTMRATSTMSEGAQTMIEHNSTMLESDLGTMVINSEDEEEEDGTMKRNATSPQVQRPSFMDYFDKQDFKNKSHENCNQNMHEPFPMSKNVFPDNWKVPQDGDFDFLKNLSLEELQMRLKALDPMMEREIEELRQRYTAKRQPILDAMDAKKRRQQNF

ABL1 (human) = ABL1 (human) (UniProt P00519)
ITK (human) = ITK (human) (UniProt Q08881)
CAMK2B (human) = CAMK2B (human) (UniProt Q13554)
[1] = test system: CHEK2 (human), O96017 [R145W]
JAK2 JH1 JH2 (human) = JAK2 JH1 JH2 (human) (UniProt O60674)
Chain of JAK2 JH1 JH2 (human) (O60674 whole entry, looked up): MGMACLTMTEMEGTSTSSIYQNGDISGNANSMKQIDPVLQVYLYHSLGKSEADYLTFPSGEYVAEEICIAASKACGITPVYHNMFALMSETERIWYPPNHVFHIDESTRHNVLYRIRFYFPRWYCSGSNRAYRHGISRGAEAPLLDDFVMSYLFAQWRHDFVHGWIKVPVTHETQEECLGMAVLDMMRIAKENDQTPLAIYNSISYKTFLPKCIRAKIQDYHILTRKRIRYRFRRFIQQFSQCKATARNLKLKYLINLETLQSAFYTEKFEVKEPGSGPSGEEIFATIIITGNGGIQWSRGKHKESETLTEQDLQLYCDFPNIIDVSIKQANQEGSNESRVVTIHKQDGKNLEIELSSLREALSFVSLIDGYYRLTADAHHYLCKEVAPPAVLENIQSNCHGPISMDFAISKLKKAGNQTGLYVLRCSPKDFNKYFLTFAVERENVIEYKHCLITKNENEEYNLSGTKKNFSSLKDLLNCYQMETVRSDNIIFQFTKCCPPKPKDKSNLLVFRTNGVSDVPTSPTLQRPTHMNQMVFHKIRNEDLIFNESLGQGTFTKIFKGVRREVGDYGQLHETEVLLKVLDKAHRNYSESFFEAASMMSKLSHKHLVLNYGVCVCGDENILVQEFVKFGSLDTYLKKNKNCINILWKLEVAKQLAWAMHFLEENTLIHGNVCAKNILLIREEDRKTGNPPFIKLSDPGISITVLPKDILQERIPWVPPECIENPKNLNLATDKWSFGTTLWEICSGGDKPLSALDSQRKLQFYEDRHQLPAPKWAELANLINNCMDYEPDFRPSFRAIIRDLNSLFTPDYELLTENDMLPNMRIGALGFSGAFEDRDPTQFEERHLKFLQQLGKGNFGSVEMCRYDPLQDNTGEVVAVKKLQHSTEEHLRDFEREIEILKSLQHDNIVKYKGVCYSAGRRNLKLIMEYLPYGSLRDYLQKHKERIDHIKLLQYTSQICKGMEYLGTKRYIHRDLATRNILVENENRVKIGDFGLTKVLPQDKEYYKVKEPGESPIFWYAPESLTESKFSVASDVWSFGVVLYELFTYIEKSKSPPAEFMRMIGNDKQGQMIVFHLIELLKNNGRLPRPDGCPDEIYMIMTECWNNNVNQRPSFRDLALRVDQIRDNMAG

PRKCZ (human) = PRKCZ (human) (UniProt Q05513)
CHEK2 (human) = CHEK2 (human) (UniProt O96017)
PTK6 (human) = PTK6 (human) (UniProt Q13882)
[2] = test system: EGFR (human), P00533 [L861Q]
DYRK2 (human) = DYRK2 (human) (UniProt Q92630)
MARK1 (human) = MARK1 (human) (UniProt Q9P0L2)
Chain of MARK1 (human) (Q9P0L2 whole entry, looked up): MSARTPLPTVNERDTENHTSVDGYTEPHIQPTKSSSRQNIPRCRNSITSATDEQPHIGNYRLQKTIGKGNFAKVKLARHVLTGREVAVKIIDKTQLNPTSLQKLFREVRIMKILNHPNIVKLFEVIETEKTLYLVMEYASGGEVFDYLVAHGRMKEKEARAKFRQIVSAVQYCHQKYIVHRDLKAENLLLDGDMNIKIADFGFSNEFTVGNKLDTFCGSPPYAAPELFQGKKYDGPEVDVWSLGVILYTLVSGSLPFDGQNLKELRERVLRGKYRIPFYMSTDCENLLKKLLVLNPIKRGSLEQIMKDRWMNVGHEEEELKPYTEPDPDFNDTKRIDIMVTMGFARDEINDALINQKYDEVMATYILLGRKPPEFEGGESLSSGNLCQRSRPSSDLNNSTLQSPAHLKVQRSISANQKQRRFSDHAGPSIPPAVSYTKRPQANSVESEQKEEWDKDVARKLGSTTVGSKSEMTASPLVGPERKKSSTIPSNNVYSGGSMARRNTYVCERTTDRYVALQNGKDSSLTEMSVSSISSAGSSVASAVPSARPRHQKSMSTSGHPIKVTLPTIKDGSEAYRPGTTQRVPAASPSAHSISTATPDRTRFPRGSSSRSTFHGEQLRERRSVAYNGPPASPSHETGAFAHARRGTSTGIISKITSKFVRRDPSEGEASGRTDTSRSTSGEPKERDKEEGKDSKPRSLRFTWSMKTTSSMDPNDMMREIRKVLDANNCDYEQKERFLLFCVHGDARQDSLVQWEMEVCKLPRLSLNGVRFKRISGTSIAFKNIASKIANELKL

RPS6KA2 KD1 KD2 (human) = RPS6KA2 KD1 KD2 (human) (UniProt Q15349)
Chain of RPS6KA2 KD1 KD2 (human) (Q15349 whole entry, looked up): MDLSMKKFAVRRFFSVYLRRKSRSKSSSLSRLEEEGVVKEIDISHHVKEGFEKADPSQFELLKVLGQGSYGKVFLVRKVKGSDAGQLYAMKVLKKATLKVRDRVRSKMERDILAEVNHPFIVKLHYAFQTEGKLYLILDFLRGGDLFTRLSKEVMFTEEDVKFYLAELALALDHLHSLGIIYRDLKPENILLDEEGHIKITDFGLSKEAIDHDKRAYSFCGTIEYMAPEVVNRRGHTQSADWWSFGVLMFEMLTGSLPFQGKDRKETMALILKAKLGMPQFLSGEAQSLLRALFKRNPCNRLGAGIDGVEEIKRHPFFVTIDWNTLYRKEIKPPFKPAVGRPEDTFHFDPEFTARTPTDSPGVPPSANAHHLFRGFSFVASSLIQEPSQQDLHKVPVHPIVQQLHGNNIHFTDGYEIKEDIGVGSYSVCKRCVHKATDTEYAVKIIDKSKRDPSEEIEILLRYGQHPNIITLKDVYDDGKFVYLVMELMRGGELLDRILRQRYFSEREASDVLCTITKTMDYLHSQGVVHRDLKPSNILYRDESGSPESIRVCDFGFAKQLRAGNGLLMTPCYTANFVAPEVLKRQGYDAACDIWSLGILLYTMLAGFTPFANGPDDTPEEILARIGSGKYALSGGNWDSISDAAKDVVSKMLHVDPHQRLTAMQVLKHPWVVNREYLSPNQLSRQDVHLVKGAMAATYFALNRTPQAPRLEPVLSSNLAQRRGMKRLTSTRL

NUAK1 (human) = NUAK1 (human) (UniProt O60285)
HIPK2 (human) = HIPK2 (human) (UniProt Q9H2X6)
SGK2 (human) = SGK2 (human) (UniProt Q9HBY8)
MELK (human) = MELK (human) (UniProt Q14680)
GRK5 (human) = GRK5 (human) (UniProt P34947)
TSSK1B (human) = TSSK1B (human) (UniProt Q9BXA7)
MAP2K6 (human) = MAP2K6 (human) (UniProt P52564)
CDK6 CCND3 (human) = CDK6 CCND3 (human) (UniProt Q00534+P30281)
FGFR2 (human) = FGFR2 (human) (UniProt P21802)
Chain of FGFR2 (human) (P21802 whole entry, looked up): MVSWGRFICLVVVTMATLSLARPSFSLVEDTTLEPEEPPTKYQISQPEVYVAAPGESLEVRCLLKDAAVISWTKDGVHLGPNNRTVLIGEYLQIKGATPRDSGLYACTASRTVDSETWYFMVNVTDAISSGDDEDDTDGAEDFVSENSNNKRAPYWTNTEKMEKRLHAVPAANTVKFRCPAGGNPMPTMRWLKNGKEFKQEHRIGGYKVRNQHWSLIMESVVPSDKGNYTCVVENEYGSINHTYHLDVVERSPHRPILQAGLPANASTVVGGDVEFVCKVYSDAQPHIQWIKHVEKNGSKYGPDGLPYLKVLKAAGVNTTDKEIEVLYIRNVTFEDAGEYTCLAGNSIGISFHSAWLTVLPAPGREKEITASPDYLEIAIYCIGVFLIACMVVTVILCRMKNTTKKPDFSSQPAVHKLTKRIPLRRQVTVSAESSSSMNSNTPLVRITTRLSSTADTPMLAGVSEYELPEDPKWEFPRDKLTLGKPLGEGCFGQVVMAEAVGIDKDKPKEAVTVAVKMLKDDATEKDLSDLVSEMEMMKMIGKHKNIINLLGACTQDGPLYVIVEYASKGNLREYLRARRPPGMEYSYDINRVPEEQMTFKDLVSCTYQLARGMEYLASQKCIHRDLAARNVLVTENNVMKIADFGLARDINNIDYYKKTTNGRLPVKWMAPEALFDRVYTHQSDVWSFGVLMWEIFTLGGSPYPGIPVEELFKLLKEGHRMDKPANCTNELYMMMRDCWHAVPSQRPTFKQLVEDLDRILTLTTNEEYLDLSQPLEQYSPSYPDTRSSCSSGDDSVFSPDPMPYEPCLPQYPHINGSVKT

residual activity (PRKG1 (human); compound 10.0 µM): 29% | residual activity (VRK2 (human); compound 10.0 µM): 115% | residual activity (EPHA8 (human); compound 10.0 µM): 91% | residual activity (EPHA3 (human); compound 10.0 µM): 86% | residual activity (SGK3 (human); compound 10.0 µM): 12% | residual activity (GCK (human); compound 10.0 µM): 17% | residual activity (EPHB3 (human); compound 10.0 µM): 113% | residual activity (CDC42BPB (human); compound 10.0 µM): 111% | residual activity (CSNK1G1 (human); compound 10.0 µM): 51% | residual activity (STK10 (human); compound 10.0 µM): 18% | residual activity (EPHA5 (human); compound 10.0 µM): 90% | residual activity (ACVR1B (human); compound 10.0 µM): 18% | residual activity (CDK1 CCNB1 (human); compound 10.0 µM): 90% | residual activity (SIK1 (human); compound 10.0 µM): 25% | residual activity (MAP3K5 (human); compound 10.0 µM): 77% | residual activity (CDC42BPA (human); compound 10.0 µM): 85% | residual activity (CAMK1 (human); compound 10.0 µM): 9% | residual activity (MST1R (human); compound 10.0 µM): 106% | residual activity (STK3 (human); compound 10.0 µM): 104% | residual activity (ABL1 (human); compound 10.0 µM): 73% | residual activity (ITK (human); compound 10.0 µM): 78% | residual activity (CAMK2B (human); compound 10.0 µM): 6% | residual activity ([1]; compound 10.0 µM): 1% | residual activity (JAK2 JH1 JH2 (human); compound 10.0 µM): 106% | residual activity (PRKCZ (human); compound 10.0 µM): 85% | residual activity (CHEK2 (human); compound 10.0 µM): 5% | residual activity (PTK6 (human); compound 10.0 µM): 81% | residual activity ([2]; compound 10.0 µM): 72% | residual activity (DYRK2 (human); compound 10.0 µM): 86% | residual activity (MARK1 (human); compound 10.0 µM): 86% | residual activity (RPS6KA2 KD1 KD2 (human); compound 10.0 µM): 8% | residual activity (NUAK1 (human); compound 10.0 µM): 66% | residual activity (HIPK2 (human); compound 10.0 µM): 63% | residual activity (SGK2 (human); compound 10.0 µM): 26% | residual activity (MELK (human); compound 10.0 µM): 13% | residual activity (GRK5 (human); compound 10.0 µM): 114% | residual activity (TSSK1B (human); compound 10.0 µM): 99% | residual activity (MAP2K6 (human); compound 10.0 µM): 33% | residual activity (CDK6 CCND3 (human); compound 10.0 µM): 103% | residual activity (FGFR2 (human); compound 10.0 µM): 65%
Compound: COc1ccc(C#Cc2ccc3ncc4ncn(-c5ccc(CCN)cc5)c4c3c2)cc1

residual activity (PRKG1 (human); compound 1.0 µM): 97% | residual activity (VRK2 (human); compound 1.0 µM): 111% | residual activity (EPHA8 (human); compound 1.0 µM): 108% | residual activity (EPHA3 (human); compound 1.0 µM): 111% | residual activity (SGK3 (human); compound 1.0 µM): 104% | residual activity (GCK (human); compound 1.0 µM): 44% | residual activity (EPHB3 (human); compound 1.0 µM): 132% | residual activity (CDC42BPB (human); compound 1.0 µM): 99% | residual activity (CSNK1G1 (human); compound 1.0 µM): 97% | residual activity (STK10 (human); compound 1.0 µM): 25% | residual activity (EPHA5 (human); compound 1.0 µM): 109% | residual activity (ACVR1B (human); compound 1.0 µM): 93% | residual activity (CDK1 CCNB1 (human); compound 1.0 µM): 100% | residual activity (SIK1 (human); compound 1.0 µM): 23% | residual activity (MAP3K5 (human); compound 1.0 µM): 104% | residual activity (CDC42BPA (human); compound 1.0 µM): 111% | residual activity (CAMK1 (human); compound 1.0 µM): 63% | residual activity (MST1R (human); compound 1.0 µM): 98% | residual activity (STK3 (human); compound 1.0 µM): 60% | residual activity (ABL1 (human); compound 1.0 µM): 71% | residual activity (ITK (human); compound 1.0 µM): 113% | residual activity (CAMK2B (human); compound 1.0 µM): 78% | residual activity ([1]; compound 1.0 µM): 12% | residual activity (JAK2 JH1 JH2 (human); compound 1.0 µM): 106% | residual activity (PRKCZ (human); compound 1.0 µM): 108% | residual activity (CHEK2 (human); compound 1.0 µM): 4% | residual activity (PTK6 (human); compound 1.0 µM): 105% | residual activity ([2]; compound 1.0 µM): 68% | residual activity (DYRK2 (human); compound 1.0 µM): 102% | residual activity (MARK1 (human); compound 1.0 µM): 61% | residual activity (RPS6KA2 KD1 KD2 (human); compound 1.0 µM): 7% | residual activity (NUAK1 (human); compound 1.0 µM): 11% | residual activity (HIPK2 (human); compound 1.0 µM): 104% | residual activity (SGK2 (human); compound 1.0 µM): 86% | residual activity (MELK (human); compound 1.0 µM): 67% | residual activity (GRK5 (human); compound 1.0 µM): 122% | residual activity (TSSK1B (human); compound 1.0 µM): 75% | residual activity (MAP2K6 (human); compound 1.0 µM): 106% | residual activity (CDK6 CCND3 (human); compound 1.0 µM): 102% | residual activity (FGFR2 (human); compound 1.0 µM): 56%
Compound: C[C@@H](Nc1nc2c(C#CC3CC3)c[nH]c(=O)c2c2cc(-c3cn[nH]c3)ccc12)C(C)(C)C

residual activity (PRKG1 (human); compound 1.0 µM): 95% | residual activity (EPHA3 (human); compound 1.0 µM): 99% | residual activity (SGK3 (human); compound 1.0 µM): 94% | residual activity (EPHB3 (human); compound 1.0 µM): 136% | residual activity (CDC42BPB (human); compound 1.0 µM): 105% | residual activity (STK10 (human); compound 1.0 µM): 81% | residual activity (EPHA5 (human); compound 1.0 µM): 94% | residual activity (ACVR1B (human); compound 1.0 µM): 138% | residual activity (CDK1 CCNB1 (human); compound 1.0 µM): 183% | residual activity (SIK1 (human); compound 1.0 µM): 18% | residual activity (MAP3K5 (human); compound 1.0 µM): 117% | residual activity (CAMK1 (human); compound 1.0 µM): 45% | residual activity (MST1R (human); compound 1.0 µM): 107% | residual activity (STK3 (human); compound 1.0 µM): 69% | residual activity (ABL1 (human); compound 1.0 µM): 113% | residual activity (ITK (human); compound 1.0 µM): 127% | residual activity (JAK2 JH1 JH2 (human); compound 1.0 µM): 100% | residual activity (PRKCZ (human); compound 1.0 µM): 97% | residual activity (CHEK2 (human); compound 1.0 µM): 5% | residual activity (PTK6 (human); compound 1.0 µM): 93% | residual activity ([2]; compound 1.0 µM): 99% | residual activity (DYRK2 (human); compound 1.0 µM): 99% | residual activity (MARK1 (human); compound 1.0 µM): 4% | residual activity (RPS6KA2 KD1 KD2 (human); compound 1.0 µM): 2% | residual activity (NUAK1 (human); compound 1.0 µM): 4% | residual activity (HIPK2 (human); compound 1.0 µM): 105% | residual activity (SGK2 (human); compound 1.0 µM): 70% | residual activity (TSSK1B (human); compound 1.0 µM): 24% | residual activity (MAP2K6 (human); compound 1.0 µM): 106% | residual activity (CDK6 CCND3 (human); compound 1.0 µM): 106% | residual activity (FGFR2 (human); compound 1.0 µM): 99%
Compound: Cc1n[nH]c2c1c(=O)n(CCCN)c1ccc(Cl)cc21
